One series deals with platelet. Particulars: risk of causing thrombocytopenia; cited from earlier work.
Series [1] relates to Vero cells. In words: Cell spread area after senescence induction. It is filed as cell-based, African monkey. The following applies: senescence induced by the agent, compared to normal control cells; FIG. 1C. On the procedure: (§1) Vero cells were treated with the stressors including 200 μM H2O2, 4 mM of sodium butyrate (SB) or 25 μM of bleomycin sulphate (BS) and incubated for 36-48 hours. After washing with PBS and then replacing growth medium with fresh medium, cells were incubated for four days to confirm the growth arrest of senescent cells. […] Four criteria were used to determine if cells were senescent; (1) cell cycle arrest by determining the growth rate, (2) Increase in cell spread area, (3) development of senescence associated secretory phonotype (SASP) in culture medium, and (4) beta-gal staining. Images of cells were captured with an Evos microscope at 10× magnification after treatment and 48 hours post treatment.
Senescence was detected by the beta-galactosidase senescence staining kit as per manufacturer's protocol. Briefly, sub confluent senescent cells were stained by the SA-beta galactosidase (β-gal) staining solution and incubated overnight at 37° C. The β-gal-stained cells appeared blue and were senescent cells. The percentages of β-gal positive cells were determined by counting the number of blue cells and dividing by the total number of cells. Cell spread area was determined by capturing the mages of cells with a 10× objective using an Evos microscope. Then, ImageJ software was used to calculate spread area by manually encircling the cell periphery of each cell. A minimum of 150 cells was used for the analysis. To determine the SASP activity, the senescent cells were cultured for one to three days and then supernatant was collected from each dish. This supernatant was used to culture normal cells. Development of a senescence phenotype by the normal cells in supernatant medium confirmed that senescent cells were secreting SASP.

The test system of series [2] is Vero cells. Kind of series: Proliferation (growth rate, fold change in cell number) of cells after senescence induction. It is filed as cell-based, African monkey. The following applies: senescence induced by the agent; 48 hours of incubation; control cells approximately eight-fold change; FIG. 1B. On the procedure: as §1
To measure growth by the increase in cell number, 15 random images were captured, then the average number of cells were determined, which was divided by the area of one frame to get the cell density (cells/cm^2). Then this seeding density was multiplied by the total area of the dish or well to obtain the total number of cells after ultrasound (US) treatment and after 48 hours of incubation. The total number of cells at 48 hours was divided by the total number of cells just after the treatment to determine the growth rate. A ratio was one would be an indication of no growth.

Another series concerns Sirtuin1. In words: LFU rejuvenation of senescent cells in presence of Sirtuin1 inhibitor. It is filed as cell-based, Human. Particulars: HFF cells with ultrasound treatment in presence of drug; FIG. 7. The method, then:
Passage 15-24 HFF cells were treated with ultrasound at the optimized frequency, power and duty cycle. Cell proliferation was determined by counting the number of cells at the time of seeding and 48 hours after ultrasound (US) treatment. […] In the case of P24 HFF cells, they were treated with ultrasound and incubated for 96 hours prior to trypsinization, reseeding and incubation for 48 hours. Proliferation and morphology were measured after 48 hours of incubation.
FIG. 7A is a schematic of resveratrol and EX-527 treatment, followed by ultrasound treatment and medium change. FIG. 7B is a bar graph comparing the fold change in cell number of untreated control HFF cells in presence of EX-527.
FIG. 7C is a bar graph comparing the fold change in cell number of treated P19 cells in the presence of drug. FIG. 7D is a set of images comparing the immunofluorescence staining of Sirt1 in untreated and US treated HFF cells. FIG. 7E is bar graph comparing the sirt1 expression by intensity ratio of sirt1 and DAPI. Results are shown as mean±S.D. **p value <0.02 and ‘non-significant’ p value >0.05.

Regarding `CC1(C)CCC(c2ccc(Cl)cc2)=C(CN2CCN(c3ccc(C(=O)NS(=O)(=O)c4ccc(N[C@H](CCN5CCOCC5)CSc5ccccc5)c(S(=O)(=O)C(F)(F)F)c4)cc3)CC2)C1` [ABT263], in the series with platelet, the toxicity result is given as “dose-limiting platelet toxicity”. On to `COc1cccc2c1C(=O)c1c(O)c3c(c(O)c1C2=O)C[C@@](O)(C(=O)CO)C[C@@H]3O[C@H]1C[C@H](N)[C@H](O)[C@H](C)O1` [Doxorubicin], for which, in the series with Vero cells [1], the spread area entry is “enlarged”. For the same compound, the “proliferation (fold change)” value with Vero cells [2] was “non proliferative”.

In the case of `NC(=O)C1CCCc2c1[nH]c1ccc(Cl)cc21` (stereo not shown) [EX-527], the “LFU rejuvenation of senescent cells” value with Sirtuin1 is “blocked”. For the compound `OO` [H2O2, hydrogen peroxide], the spread area entry with Vero cells [1] is given as “enlarged”. The “proliferation (fold change)” value with Vero cells [2] was “non proliferative”.

As to `CCCC(=O)[O-].[Na+]` [sodium butyrate], the spread area result in the series with Vero cells [1] is “enlarged”. For the same compound, the “proliferation (fold change)” value with Vero cells [2] is “non proliferative”. Taken in the same sequence, the figures for Bleomycin Sulphate were “enlarged” and “non proliferative”.

Values taken from US20240001155A1, “REVERSAL OF CELLULAR SENESCENCE BY TREATMENT WITH LOW FREQUENCY ULTRASOUND” (Mechanobiologics, Inc., priority 2022, published 2024).
